≈ marks a conversion by molar mass, not a printed value.
Test system: Escherichia coli
Experiment: Antimicrobial activity against Escherichia coli CU164A harboring empty plasmid by liquid microdilution method
Format: functional

`CC(=O)OCC1=C(C(=O)O)N2C(=O)[C@@H](NC(=O)Cc3cccs3)[C@H]2SC1` [CEPHALOTHIN] and `CC1(C)S[C@@H]2[C@H](NC(=O)[C@H](N)c3ccc(O)cc3)C(=O)N2[C@H]1C(=O)O` [AMOXICILLIN] are the same in MIC: 4 µg/mL (≈ 10.1 µM) for the first, 4 µg/mL (≈ 10.9 µM) for the second.

Test system: Escherichia coli
Experiment: Antimicrobial activity against translocase tatC-deficient Escherichia coli B1LK0A expressing beta-lactamase TEM-1 by liquid microdilution method
Format: functional

First: CC(=O)OCC1=C(C(=O)O)N2C(=O)[C@@H](NC(=O)Cc3cccs3)[C@H]2SC1 [CEPHALOTHIN]
Second: CC1(C)S[C@@H]2[C@H](NC(=O)[C@H](N)c3ccc(O)cc3)C(=O)N2[C@H]1C(=O)O [AMOXICILLIN]
The MIC of the first is 32-fold lower: 16 µg/mL (≈ 40.4 µM) for the first, 512 µg/mL (≈ 1400 µM) for the second.

Test system: Escherichia coli
Experiment: Antimicrobial activity against Escherichia coli CU164A harboring beta-lactamase L2 by liquid microdilution method

First: CC(=O)OCC1=C(C(=O)O)N2C(=O)[C@@H](NC(=O)Cc3cccs3)[C@H]2SC1 [CEPHALOTHIN]
Second: CC1(C)S[C@@H]2[C@H](NC(=O)[C@H](N)c3ccc(O)cc3)C(=O)N2[C@H]1C(=O)O [AMOXICILLIN]
The MIC of the first is 2-fold lower: 256 µg/mL (≈ 646 µM) for the first, 512 µg/mL (≈ 1400 µM) for the second.

Test system: Escherichia coli
Experiment: Antimicrobial activity against Escherichia coli CU164A harboring beta-lactamase L1 by liquid microdilution method
Format: functional

Going from `CC(=O)OCC1=C(C(=O)O)N2C(=O)[C@@H](NC(=O)Cc3cccs3)[C@H]2SC1` [CEPHALOTHIN] to `CC1(C)S[C@@H]2[C@H](NC(=O)[C@H](N)c3ccc(O)cc3)C(=O)N2[C@H]1C(=O)O` [AMOXICILLIN], the MIC rises from 128 µg/mL (≈ 323 µM) to 512 µg/mL (≈ 1400 µM) (4-fold).

Test system: Escherichia coli
Experiment: Antimicrobial activity against Escherichia coli MC4100A harboring beta-lactamase L1 by liquid microdilution method
Format: functional

Compared with `CC(=O)OCC1=C(C(=O)O)N2C(=O)[C@@H](NC(=O)Cc3cccs3)[C@H]2SC1` [CEPHALOTHIN], `CC1(C)S[C@@H]2[C@H](NC(=O)[C@H](N)c3ccc(O)cc3)C(=O)N2[C@H]1C(=O)O` [AMOXICILLIN] is 8-fold higher in MIC: 128 µg/mL (≈ 323 µM) for the first, 1020 µg/mL (≈ 2800 µM) for the second.

Test system: Escherichia coli
Experiment: Antimicrobial activity against mreB-deficient Escherichia coli YLS-3 expressing beta-lactamase TEM-1 by liquid microdilution method
Format: functional

Compared with `CC(=O)OCC1=C(C(=O)O)N2C(=O)[C@@H](NC(=O)Cc3cccs3)[C@H]2SC1` [CEPHALOTHIN], `CC1(C)S[C@@H]2[C@H](NC(=O)[C@H](N)c3ccc(O)cc3)C(=O)N2[C@H]1C(=O)O` [AMOXICILLIN] is 32-fold higher in MIC: 8 µg/mL (≈ 20.2 µM) for the first, 256 µg/mL (≈ 701 µM) for the second.

Test system: Escherichia coli
Experiment: Antimicrobial activity against mreB-deficient Escherichia coli YLS-3 harboring beta-lactamase L2 by liquid microdilution method
Format: functional

Going from `CC(=O)OCC1=C(C(=O)O)N2C(=O)[C@@H](NC(=O)Cc3cccs3)[C@H]2SC1` [CEPHALOTHIN] to `CC1(C)S[C@@H]2[C@H](NC(=O)[C@H](N)c3ccc(O)cc3)C(=O)N2[C@H]1C(=O)O` [AMOXICILLIN], the MIC rises from 64 µg/mL (≈ 161 µM) to 256 µg/mL (≈ 701 µM) (4-fold).

Test system: Escherichia coli
Experiment: Antimicrobial activity against translocase tatC-deficient Escherichia coli B1LK0A harboring beta-lactamase CTX-M-14 by liquid microdilution method
Format: functional

First: CC(=O)OCC1=C(C(=O)O)N2C(=O)[C@@H](NC(=O)Cc3cccs3)[C@H]2SC1 [CEPHALOTHIN]
Second: CC1(C)S[C@@H]2[C@H](NC(=O)[C@H](N)c3ccc(O)cc3)C(=O)N2[C@H]1C(=O)O [AMOXICILLIN]
The MIC of the first is 4-fold lower: 512 µg/mL (≈ 1290 µM) for the first, 2050 µg/mL (≈ 5600 µM) for the second.

Test system: Escherichia coli
Experiment: Antimicrobial activity against Escherichia coli CU164A harboring beta-lactamase CTX-M-14 by liquid microdilution method
Format: functional

First: CC(=O)OCC1=C(C(=O)O)N2C(=O)[C@@H](NC(=O)Cc3cccs3)[C@H]2SC1 [CEPHALOTHIN]
Second: CC1(C)S[C@@H]2[C@H](NC(=O)[C@H](N)c3ccc(O)cc3)C(=O)N2[C@H]1C(=O)O [AMOXICILLIN]
The MIC of the first is 2-fold lower: 1020 µg/mL (≈ 2580 µM) for the first, 2050 µg/mL (≈ 5600 µM) for the second.

Test system: Escherichia coli
Experiment: Antimicrobial activity against Escherichia coli CU164A expressing beta-lactamase TEM-1 by liquid microdilution method
Format: functional

Compared with `CC(=O)OCC1=C(C(=O)O)N2C(=O)[C@@H](NC(=O)Cc3cccs3)[C@H]2SC1` [CEPHALOTHIN], `CC1(C)S[C@@H]2[C@H](NC(=O)[C@H](N)c3ccc(O)cc3)C(=O)N2[C@H]1C(=O)O` [AMOXICILLIN] is 32-fold higher in MIC: 32 µg/mL (≈ 80.7 µM) for the first, 1020 µg/mL (≈ 2800 µM) for the second.

Test system: Escherichia coli
Experiment: Antimicrobial activity against translocase tatC-deficient Escherichia coli B1LK0A harboring beta-lactamase AmpC by liquid microdilution method

Going from `CC(=O)OCC1=C(C(=O)O)N2C(=O)[C@@H](NC(=O)Cc3cccs3)[C@H]2SC1` [CEPHALOTHIN] to `CC1(C)S[C@@H]2[C@H](NC(=O)[C@H](N)c3ccc(O)cc3)C(=O)N2[C@H]1C(=O)O` [AMOXICILLIN], the MIC rises from 256 µg/mL (≈ 646 µM) to 512 µg/mL (≈ 1400 µM) (2-fold).

Test system: Escherichia coli
Experiment: Antimicrobial activity against translocase tatC-deficient Escherichia coli B1LK0A harboring beta-lactamase L2 by liquid microdilution method
Format: functional

Compared with `CC(=O)OCC1=C(C(=O)O)N2C(=O)[C@@H](NC(=O)Cc3cccs3)[C@H]2SC1` [CEPHALOTHIN], `CC1(C)S[C@@H]2[C@H](NC(=O)[C@H](N)c3ccc(O)cc3)C(=O)N2[C@H]1C(=O)O` [AMOXICILLIN] is higher in MIC: no more than 2 µg/mL for the first, 4 µg/mL (≈ 10.9 µM) for the second.

Test system: Escherichia coli
Experiment: Antimicrobial activity against Escherichia coli MC4100A harboring beta-lactamase L2 by liquid microdilution method

Going from `CC(=O)OCC1=C(C(=O)O)N2C(=O)[C@@H](NC(=O)Cc3cccs3)[C@H]2SC1` [CEPHALOTHIN] to `CC1(C)S[C@@H]2[C@H](NC(=O)[C@H](N)c3ccc(O)cc3)C(=O)N2[C@H]1C(=O)O` [AMOXICILLIN], the MIC falls from 256 µg/mL (≈ 646 µM) to 64 µg/mL (≈ 175 µM) (4-fold).

Test system: Escherichia coli
Experiment: Antimicrobial activity against Escherichia coli MC4100A harboring beta-lactamase AmpC by liquid microdilution method
Format: functional

Going from `CC(=O)OCC1=C(C(=O)O)N2C(=O)[C@@H](NC(=O)Cc3cccs3)[C@H]2SC1` [CEPHALOTHIN] to `CC1(C)S[C@@H]2[C@H](NC(=O)[C@H](N)c3ccc(O)cc3)C(=O)N2[C@H]1C(=O)O` [AMOXICILLIN], the MIC falls from 1020 µg/mL (≈ 2580 µM) to 512 µg/mL (≈ 1400 µM) (2-fold).

Test system: Escherichia coli
Experiment: Antimicrobial activity against Escherichia coli MC4100A harboring beta-lactamase CTX-M-14 by liquid microdilution method
Format: functional

Going from `CC(=O)OCC1=C(C(=O)O)N2C(=O)[C@@H](NC(=O)Cc3cccs3)[C@H]2SC1` [CEPHALOTHIN] to `CC1(C)S[C@@H]2[C@H](NC(=O)[C@H](N)c3ccc(O)cc3)C(=O)N2[C@H]1C(=O)O` [AMOXICILLIN], the MIC rises from 1020 µg/mL (≈ 2580 µM) to 2050 µg/mL (≈ 5600 µM) (2-fold).

Test system: Escherichia coli
Experiment: Antimicrobial activity against translocase tatC-deficient Escherichia coli B1LK0A harboring empty plasmid by liquid microdilution method
Format: functional

First: CC(=O)OCC1=C(C(=O)O)N2C(=O)[C@@H](NC(=O)Cc3cccs3)[C@H]2SC1 [CEPHALOTHIN]
Second: CC1(C)S[C@@H]2[C@H](NC(=O)[C@H](N)c3ccc(O)cc3)C(=O)N2[C@H]1C(=O)O [AMOXICILLIN]
The MIC of the first is lower: no more than 2 µg/mL for the first, 4 µg/mL (≈ 10.9 µM) for the second.

Test system: Escherichia coli
Experiment: Antimicrobial activity against mreB-deficient Escherichia coli YLS-3 harboring beta-lactamase L1 by liquid microdilution method

Going from `CC(=O)OCC1=C(C(=O)O)N2C(=O)[C@@H](NC(=O)Cc3cccs3)[C@H]2SC1` [CEPHALOTHIN] to `CC1(C)S[C@@H]2[C@H](NC(=O)[C@H](N)c3ccc(O)cc3)C(=O)N2[C@H]1C(=O)O` [AMOXICILLIN], the MIC rises from 32 µg/mL (≈ 80.7 µM) to 512 µg/mL (≈ 1400 µM) (16-fold).

Test system: Escherichia coli
Experiment: Antimicrobial activity against Escherichia coli MC4100A expressing beta-lactamase TEM-1 by liquid microdilution method
Format: functional

First: CC(=O)OCC1=C(C(=O)O)N2C(=O)[C@@H](NC(=O)Cc3cccs3)[C@H]2SC1 [CEPHALOTHIN]
Second: CC1(C)S[C@@H]2[C@H](NC(=O)[C@H](N)c3ccc(O)cc3)C(=O)N2[C@H]1C(=O)O [AMOXICILLIN]
The MIC of the first is 32-fold lower: 32 µg/mL (≈ 80.7 µM) for the first, 1020 µg/mL (≈ 2800 µM) for the second.

Test system: Escherichia coli
Experiment: Antimicrobial activity against Escherichia coli CU164A harboring beta-lactamase AmpC by liquid microdilution method

`CC(=O)OCC1=C(C(=O)O)N2C(=O)[C@@H](NC(=O)Cc3cccs3)[C@H]2SC1` [CEPHALOTHIN] and `CC1(C)S[C@@H]2[C@H](NC(=O)[C@H](N)c3ccc(O)cc3)C(=O)N2[C@H]1C(=O)O` [AMOXICILLIN] are the same in MIC: 512 µg/mL (≈ 1290 µM) for the first, 512 µg/mL (≈ 1400 µM) for the second.

Test system: Escherichia coli
Experiment: Antimicrobial activity against mreB-deficient Escherichia coli YLS-3 harboring beta-lactamase AmpC by liquid microdilution method

Going from `CC(=O)OCC1=C(C(=O)O)N2C(=O)[C@@H](NC(=O)Cc3cccs3)[C@H]2SC1` [CEPHALOTHIN] to `CC1(C)S[C@@H]2[C@H](NC(=O)[C@H](N)c3ccc(O)cc3)C(=O)N2[C@H]1C(=O)O` [AMOXICILLIN], the MIC falls from 256 µg/mL (≈ 646 µM) to 128 µg/mL (≈ 350 µM) (2-fold).

Test system: Escherichia coli
Experiment: Antimicrobial activity against Escherichia coli MC4100A harboring empty plasmid by liquid microdilution method
Format: functional

`CC(=O)OCC1=C(C(=O)O)N2C(=O)[C@@H](NC(=O)Cc3cccs3)[C@H]2SC1` [CEPHALOTHIN] and `CC1(C)S[C@@H]2[C@H](NC(=O)[C@H](N)c3ccc(O)cc3)C(=O)N2[C@H]1C(=O)O` [AMOXICILLIN] are the same in MIC: 4 µg/mL (≈ 10.1 µM) for the first, 4 µg/mL (≈ 10.9 µM) for the second.

Test system: Escherichia coli
Experiment: Antimicrobial activity against translocase tatC-deficient Escherichia coli B1LK0A harboring beta-lactamase L1 by liquid microdilution method
Format: functional

Going from `CC(=O)OCC1=C(C(=O)O)N2C(=O)[C@@H](NC(=O)Cc3cccs3)[C@H]2SC1` [CEPHALOTHIN] to `CC1(C)S[C@@H]2[C@H](NC(=O)[C@H](N)c3ccc(O)cc3)C(=O)N2[C@H]1C(=O)O` [AMOXICILLIN], the MIC rises from 128 µg/mL (≈ 323 µM) to 512 µg/mL (≈ 1400 µM) (4-fold).

Test system: Escherichia coli
Experiment: Antimicrobial activity against mreB-deficient Escherichia coli YLS-3 harboring empty plasmid by liquid microdilution method
Format: functional

Compared with `CC(=O)OCC1=C(C(=O)O)N2C(=O)[C@@H](NC(=O)Cc3cccs3)[C@H]2SC1` [CEPHALOTHIN], `CC1(C)S[C@@H]2[C@H](NC(=O)[C@H](N)c3ccc(O)cc3)C(=O)N2[C@H]1C(=O)O` [AMOXICILLIN] is higher in MIC: no more than 2 µg/mL for the first, 4 µg/mL (≈ 10.9 µM) for the second.

Test system: Escherichia coli
Experiment: Antimicrobial activity against mreB-deficient Escherichia coli YLS-3 harboring beta-lactamase CTX-M-14 by liquid microdilution method
Format: functional

Going from `CC(=O)OCC1=C(C(=O)O)N2C(=O)[C@@H](NC(=O)Cc3cccs3)[C@H]2SC1` [CEPHALOTHIN] to `CC1(C)S[C@@H]2[C@H](NC(=O)[C@H](N)c3ccc(O)cc3)C(=O)N2[C@H]1C(=O)O` [AMOXICILLIN], the MIC rises from 128 µg/mL (≈ 323 µM) to 1020 µg/mL (≈ 2800 µM) (8-fold).
